The record followed here is patent publication US11198741B2, “Medicines for topic use based on sulfated hyaluronic acid as activating or inhibiting agent of the cytokine activity” (Fidia Farmaceutici S.p.A., priority 2009, dated 2021).

One assay has as its system IL-7. Put plainly: Protein synthesis of IL-7 in human PBMC (SearchLight array). The conditions noted are these: not stimulated or stimulated with LPS or PHA (10 μg/ml), 24 hours, FIG. 7: 1 mg/ml, vs HA.
Another assay concerns the target T1, fibrin clot (Homo sapiens, UniProt P02671+P02675+P02679).
T1 sequence (P02671 20-644 isoform P02671-2 limits assumed): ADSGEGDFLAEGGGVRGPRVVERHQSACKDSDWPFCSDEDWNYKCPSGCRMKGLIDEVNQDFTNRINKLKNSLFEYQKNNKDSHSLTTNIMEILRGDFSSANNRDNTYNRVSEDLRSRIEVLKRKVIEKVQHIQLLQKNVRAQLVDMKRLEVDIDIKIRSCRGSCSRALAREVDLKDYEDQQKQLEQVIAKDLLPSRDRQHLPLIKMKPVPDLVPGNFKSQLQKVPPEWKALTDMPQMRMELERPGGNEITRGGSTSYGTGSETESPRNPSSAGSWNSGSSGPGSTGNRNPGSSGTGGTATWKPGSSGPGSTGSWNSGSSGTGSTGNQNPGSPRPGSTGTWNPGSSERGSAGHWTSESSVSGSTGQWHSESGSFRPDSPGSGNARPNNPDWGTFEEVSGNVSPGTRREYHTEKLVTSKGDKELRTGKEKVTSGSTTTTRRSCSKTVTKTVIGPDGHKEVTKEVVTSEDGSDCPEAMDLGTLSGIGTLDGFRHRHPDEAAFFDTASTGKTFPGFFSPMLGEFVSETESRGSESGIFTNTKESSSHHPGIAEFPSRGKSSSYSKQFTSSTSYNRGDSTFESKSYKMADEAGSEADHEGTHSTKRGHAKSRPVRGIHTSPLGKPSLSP
T1 sequence (P02675 45-491 limits assumed): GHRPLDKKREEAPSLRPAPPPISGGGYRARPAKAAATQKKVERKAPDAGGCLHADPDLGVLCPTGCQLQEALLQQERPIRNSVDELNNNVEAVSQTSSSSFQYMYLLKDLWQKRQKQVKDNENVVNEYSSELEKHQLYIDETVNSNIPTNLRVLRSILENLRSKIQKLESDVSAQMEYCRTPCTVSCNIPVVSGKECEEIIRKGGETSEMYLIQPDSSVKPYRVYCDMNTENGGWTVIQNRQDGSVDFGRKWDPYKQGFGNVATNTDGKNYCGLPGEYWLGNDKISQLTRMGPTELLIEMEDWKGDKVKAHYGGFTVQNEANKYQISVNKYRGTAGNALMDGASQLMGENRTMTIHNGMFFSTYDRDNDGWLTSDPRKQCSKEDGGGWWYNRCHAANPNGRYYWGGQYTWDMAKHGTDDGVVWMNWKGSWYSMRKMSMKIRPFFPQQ
T1 sequence (P02679 27-437 isoform P02679-2 limits assumed): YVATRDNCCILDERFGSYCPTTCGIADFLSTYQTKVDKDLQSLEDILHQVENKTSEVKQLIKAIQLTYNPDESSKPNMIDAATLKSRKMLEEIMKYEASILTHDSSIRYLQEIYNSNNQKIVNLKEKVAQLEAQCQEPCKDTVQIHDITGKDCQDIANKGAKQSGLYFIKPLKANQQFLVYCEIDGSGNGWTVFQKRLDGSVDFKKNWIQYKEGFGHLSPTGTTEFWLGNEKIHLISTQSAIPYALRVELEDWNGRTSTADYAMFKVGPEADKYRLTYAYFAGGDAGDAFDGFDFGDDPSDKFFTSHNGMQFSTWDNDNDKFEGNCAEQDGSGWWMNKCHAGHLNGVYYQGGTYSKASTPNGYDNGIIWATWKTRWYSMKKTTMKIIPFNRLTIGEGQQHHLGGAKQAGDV
The assay is described as follows: In vitro fibrinolytic activity: dissolution of fibrin clot in coagulated plasma (absorbance at 405 nm). The format is biochemical. The conditions noted are these: 37° C. How it is done:
The evaluation of the fibrinolytic properties of the products subjected to the test was compared with the acknowledged fibrinolytic activity of the plasmin. In particular, the dissolution rate of the fibrin network and formation of soluble products of the fibrin degradation (FDP), was evaluated.
In order to test the fibrinolytic effectiveness of the products subjected to testing, the blood samples were distributed in various test-tubes in which the clot formation was induced.
The formation of FDP was then evaluated after the addition of:
The freshly removed blood samples were distributed in various test-tubes containing sodium citrate in a ratio of 9:1. The test-tubes were immediately centrifuged at 3,000 rpm for 5 minutes. The plasma obtained was transferred to a new test-tube and immediately used for effecting the FDP evaluation.
Thrombin (300 mU/ml), preheated to 37° C. was added to the plasma samples, as activator of the fibrinogen in inducing the formation of the clot.
The following were added to the different cuvettes containing the fibrin clot:
a plasmin solution 0.5 mU, 5 mU, 50 mU, 500 mU and 1 U
solutions of HAS3 at concentrations of 25 mg/ml, 50 mg/ml, 100 mg/ml, 150 mg/ml and 200 mg/ml.
The absorbance variation at 405 nm for 60 sec. was evaluated spectrophotometrically for each cuvette. The reaction was left to proceed until the complete dissolution of the clot.
Coagulated plasma, plasmin solution and a solution of HAS3 200 KD and HAS3 20 KD were mixed in a ratio of 1:1 v/v and maintained at an operating temperature of 37° C.

Method for IL-7: For these experimentations, mononucleate cells of human peripheral blood (PBMC) were adopted, deriving from various donors for evaluating the effect of HAS on the production of the cytokines listed above, using:
The separation of the PBMC (Bøyum A., Scand J Clin Lab Invest 21 Suppl, 1968, 97:77-89) was effected using the product Ficoll-Paque PLUS (GE Healthcare) and following the protocol indicated by the supplier. At day zero 100,000 cells were plated per well (using plates with 96 wells) in 200 μl of medium RPMI 1640, to which 10% of fetal bovine serum, HEPES 10 mM, Glutamine 2 mM, 1% Penicillin-Streptomycin 100 U/ml, had been added. […] The cells were treated separately with the three compounds at a concentration of 0.1 mg/ml or 1 mg/ml. After 24 hours of incubation at 37° C. (5% CO2), 100 μl of supernatant were taken from each well in order to analyze the production of IL-2, IL-7, IL-10 and IL-12.
The quantification of the inflammation mediators was effected by means of the SearchLight® technology, using a Custom Human 9-flex Array plate following the protocol indicated by the supplier in the technical card.

As to “sulfated hyaluronic acid degree 3 [HAS3]”, the “synthesis of IL-7” value in the assay with IL-7 was “significantly reducing”. Further, the “fibrinolytic activity (expressed in mU equivalents of Plasmin)” value at fibrin clot (25 mg/ml) came to 0.5 mU; at fibrin clot (50 mg/ml), 3 mU; on fibrin clot (100 mg/ml) it was 10 mU; on fibrin clot (150 mg/ml), 50 mU. The “fibrinolytic activity (expressed in equivalents of Plasmin)” value on fibrin clot (200 mg/ml) came to 1.1 U.
